The values that follow come from PMC11345841, “Exploring 2-Sulfonylpyrimidine Warheads as Acrylamide Surrogates for Targeted Covalent Inhibition: A BTK Story” (Journal of Medicinal Chemistry, 2024).

Holding throughout (experiment): KINOMEscan ScanTK
Format in all cases: binding

The target of test [1] is T1, KIT(V559D) (Homo sapiens, UniProt P10721, V559D).
T1 construct: purchased Eurofins DiscoverX KINOMEscan (scanTK)

Test [2] concerns the target T2, EPHA3 (Homo sapiens, UniProt P29320).
T2 construct: purchased Eurofins DiscoverX KINOMEscan (scanTK)
T2 sequence (P29320 21-983): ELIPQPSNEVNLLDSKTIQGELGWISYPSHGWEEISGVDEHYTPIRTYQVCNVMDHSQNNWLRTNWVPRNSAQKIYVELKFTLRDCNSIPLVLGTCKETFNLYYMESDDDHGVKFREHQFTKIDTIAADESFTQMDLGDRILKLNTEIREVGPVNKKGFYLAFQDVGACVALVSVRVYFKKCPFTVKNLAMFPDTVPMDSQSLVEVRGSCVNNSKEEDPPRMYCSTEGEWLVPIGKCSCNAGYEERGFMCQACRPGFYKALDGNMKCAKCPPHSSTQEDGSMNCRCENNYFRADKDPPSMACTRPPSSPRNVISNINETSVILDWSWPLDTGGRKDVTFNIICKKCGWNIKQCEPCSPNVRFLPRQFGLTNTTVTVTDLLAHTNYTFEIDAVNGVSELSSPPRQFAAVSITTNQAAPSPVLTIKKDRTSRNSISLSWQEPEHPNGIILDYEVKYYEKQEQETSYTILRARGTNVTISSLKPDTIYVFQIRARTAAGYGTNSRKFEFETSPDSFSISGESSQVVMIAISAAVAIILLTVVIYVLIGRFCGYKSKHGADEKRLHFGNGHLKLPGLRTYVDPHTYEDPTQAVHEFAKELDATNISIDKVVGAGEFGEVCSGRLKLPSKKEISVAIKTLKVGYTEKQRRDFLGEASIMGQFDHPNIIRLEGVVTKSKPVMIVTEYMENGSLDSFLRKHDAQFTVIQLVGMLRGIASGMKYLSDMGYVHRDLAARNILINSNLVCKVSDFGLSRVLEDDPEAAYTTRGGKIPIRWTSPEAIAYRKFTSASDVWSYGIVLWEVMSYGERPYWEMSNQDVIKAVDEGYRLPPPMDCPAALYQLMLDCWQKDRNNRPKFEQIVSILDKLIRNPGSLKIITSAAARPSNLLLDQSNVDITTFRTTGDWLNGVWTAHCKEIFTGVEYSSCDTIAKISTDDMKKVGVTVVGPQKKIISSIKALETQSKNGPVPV

The target of test [3] is T3, FLT3-autoinhibited (Homo sapiens, UniProt P36888).
T3 construct: purchased Eurofins DiscoverX KINOMEscan (scanTK)
T3 sequence (P36888 27-993): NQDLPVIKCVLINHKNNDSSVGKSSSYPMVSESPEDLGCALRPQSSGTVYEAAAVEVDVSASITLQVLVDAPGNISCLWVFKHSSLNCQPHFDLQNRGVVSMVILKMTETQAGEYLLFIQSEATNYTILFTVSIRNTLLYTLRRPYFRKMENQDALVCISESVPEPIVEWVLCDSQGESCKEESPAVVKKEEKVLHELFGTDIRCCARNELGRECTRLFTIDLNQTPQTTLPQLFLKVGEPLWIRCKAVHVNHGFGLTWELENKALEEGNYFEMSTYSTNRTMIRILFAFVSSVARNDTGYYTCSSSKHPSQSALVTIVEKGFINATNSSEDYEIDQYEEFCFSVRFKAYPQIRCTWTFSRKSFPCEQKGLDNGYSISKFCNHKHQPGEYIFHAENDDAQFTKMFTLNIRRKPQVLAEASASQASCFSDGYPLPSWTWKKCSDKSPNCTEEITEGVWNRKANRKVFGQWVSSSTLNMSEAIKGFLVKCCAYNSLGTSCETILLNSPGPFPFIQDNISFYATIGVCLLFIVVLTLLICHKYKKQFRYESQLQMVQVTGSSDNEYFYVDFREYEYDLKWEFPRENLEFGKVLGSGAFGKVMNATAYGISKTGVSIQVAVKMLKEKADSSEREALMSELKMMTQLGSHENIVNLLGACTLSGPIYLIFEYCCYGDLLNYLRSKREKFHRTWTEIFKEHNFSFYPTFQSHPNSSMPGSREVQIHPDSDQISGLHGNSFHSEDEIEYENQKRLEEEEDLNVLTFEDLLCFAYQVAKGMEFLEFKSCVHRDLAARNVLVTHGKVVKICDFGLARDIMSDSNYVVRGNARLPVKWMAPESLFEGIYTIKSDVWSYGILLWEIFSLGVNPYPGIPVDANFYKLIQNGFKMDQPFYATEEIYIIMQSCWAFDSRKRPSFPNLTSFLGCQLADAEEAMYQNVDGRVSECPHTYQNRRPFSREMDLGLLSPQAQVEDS

Test [4] deals with T4, CSF1R-autoinhibited (Homo sapiens, UniProt P07333).
T4 construct: purchased Eurofins DiscoverX KINOMEscan (scanTK)
T4 sequence (P07333 539-972 limits assumed): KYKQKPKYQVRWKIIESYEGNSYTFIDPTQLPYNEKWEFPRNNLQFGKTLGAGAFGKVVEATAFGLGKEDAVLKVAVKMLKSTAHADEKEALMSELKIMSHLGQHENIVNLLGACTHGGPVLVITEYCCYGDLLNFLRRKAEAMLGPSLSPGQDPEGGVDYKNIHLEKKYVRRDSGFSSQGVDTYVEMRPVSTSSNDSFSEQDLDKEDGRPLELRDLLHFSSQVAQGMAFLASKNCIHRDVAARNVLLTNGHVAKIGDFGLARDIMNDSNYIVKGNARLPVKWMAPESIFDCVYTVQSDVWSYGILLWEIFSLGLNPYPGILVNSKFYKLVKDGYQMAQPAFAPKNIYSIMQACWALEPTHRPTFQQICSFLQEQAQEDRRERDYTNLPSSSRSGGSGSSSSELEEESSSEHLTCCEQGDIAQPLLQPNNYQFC

For test [5], the target named is T5, YES (Homo sapiens, UniProt P07947).
T5 construct: purchased Eurofins DiscoverX KINOMEscan (scanTK)

Test [6] addresses T6, FLT4 (Homo sapiens, UniProt P35916).
T6 construct: purchased Eurofins DiscoverX KINOMEscan (scanTK)

Test [7] has as its target T7, ABL1(F317L)-nonphosphorylated (Homo sapiens, UniProt P00519, F317L).
T7 construct: purchased Eurofins DiscoverX KINOMEscan (scanTK)

For test [8], the target named is T8, ALK (Homo sapiens, UniProt Q9UM73).
T8 construct: purchased Eurofins DiscoverX KINOMEscan (scanTK)

Where two headings read alike, the source gives them in different places.

T7 sequence (P00519 whole entry F317L): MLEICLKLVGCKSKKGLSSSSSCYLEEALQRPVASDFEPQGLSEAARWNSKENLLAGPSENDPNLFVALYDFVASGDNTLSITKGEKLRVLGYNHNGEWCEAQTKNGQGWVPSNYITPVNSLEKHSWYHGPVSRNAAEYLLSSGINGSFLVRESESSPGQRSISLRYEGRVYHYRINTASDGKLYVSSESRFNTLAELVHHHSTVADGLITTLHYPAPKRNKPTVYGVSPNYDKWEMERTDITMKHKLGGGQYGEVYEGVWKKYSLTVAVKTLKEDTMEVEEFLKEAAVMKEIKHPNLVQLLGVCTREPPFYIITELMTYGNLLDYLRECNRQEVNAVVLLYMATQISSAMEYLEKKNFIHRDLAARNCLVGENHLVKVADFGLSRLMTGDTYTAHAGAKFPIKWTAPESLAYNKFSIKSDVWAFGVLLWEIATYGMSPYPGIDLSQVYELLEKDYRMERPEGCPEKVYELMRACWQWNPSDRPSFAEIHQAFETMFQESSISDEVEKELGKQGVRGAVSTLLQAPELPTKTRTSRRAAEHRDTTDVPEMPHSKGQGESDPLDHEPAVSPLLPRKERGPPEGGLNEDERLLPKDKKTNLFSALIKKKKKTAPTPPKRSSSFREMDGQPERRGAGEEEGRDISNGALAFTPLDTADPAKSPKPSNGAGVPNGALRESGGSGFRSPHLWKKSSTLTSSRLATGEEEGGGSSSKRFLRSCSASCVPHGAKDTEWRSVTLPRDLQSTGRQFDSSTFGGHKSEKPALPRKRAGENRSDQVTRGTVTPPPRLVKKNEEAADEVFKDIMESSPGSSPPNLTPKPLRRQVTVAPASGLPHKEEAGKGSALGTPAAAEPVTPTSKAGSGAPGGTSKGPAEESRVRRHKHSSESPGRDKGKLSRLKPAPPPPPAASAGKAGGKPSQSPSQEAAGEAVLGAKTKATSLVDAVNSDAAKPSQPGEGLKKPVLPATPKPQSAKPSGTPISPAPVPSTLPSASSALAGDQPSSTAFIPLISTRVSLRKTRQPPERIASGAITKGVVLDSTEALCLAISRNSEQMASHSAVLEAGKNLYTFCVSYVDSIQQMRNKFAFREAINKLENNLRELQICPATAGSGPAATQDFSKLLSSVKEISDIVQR
T6 sequence (P35916 25-1363): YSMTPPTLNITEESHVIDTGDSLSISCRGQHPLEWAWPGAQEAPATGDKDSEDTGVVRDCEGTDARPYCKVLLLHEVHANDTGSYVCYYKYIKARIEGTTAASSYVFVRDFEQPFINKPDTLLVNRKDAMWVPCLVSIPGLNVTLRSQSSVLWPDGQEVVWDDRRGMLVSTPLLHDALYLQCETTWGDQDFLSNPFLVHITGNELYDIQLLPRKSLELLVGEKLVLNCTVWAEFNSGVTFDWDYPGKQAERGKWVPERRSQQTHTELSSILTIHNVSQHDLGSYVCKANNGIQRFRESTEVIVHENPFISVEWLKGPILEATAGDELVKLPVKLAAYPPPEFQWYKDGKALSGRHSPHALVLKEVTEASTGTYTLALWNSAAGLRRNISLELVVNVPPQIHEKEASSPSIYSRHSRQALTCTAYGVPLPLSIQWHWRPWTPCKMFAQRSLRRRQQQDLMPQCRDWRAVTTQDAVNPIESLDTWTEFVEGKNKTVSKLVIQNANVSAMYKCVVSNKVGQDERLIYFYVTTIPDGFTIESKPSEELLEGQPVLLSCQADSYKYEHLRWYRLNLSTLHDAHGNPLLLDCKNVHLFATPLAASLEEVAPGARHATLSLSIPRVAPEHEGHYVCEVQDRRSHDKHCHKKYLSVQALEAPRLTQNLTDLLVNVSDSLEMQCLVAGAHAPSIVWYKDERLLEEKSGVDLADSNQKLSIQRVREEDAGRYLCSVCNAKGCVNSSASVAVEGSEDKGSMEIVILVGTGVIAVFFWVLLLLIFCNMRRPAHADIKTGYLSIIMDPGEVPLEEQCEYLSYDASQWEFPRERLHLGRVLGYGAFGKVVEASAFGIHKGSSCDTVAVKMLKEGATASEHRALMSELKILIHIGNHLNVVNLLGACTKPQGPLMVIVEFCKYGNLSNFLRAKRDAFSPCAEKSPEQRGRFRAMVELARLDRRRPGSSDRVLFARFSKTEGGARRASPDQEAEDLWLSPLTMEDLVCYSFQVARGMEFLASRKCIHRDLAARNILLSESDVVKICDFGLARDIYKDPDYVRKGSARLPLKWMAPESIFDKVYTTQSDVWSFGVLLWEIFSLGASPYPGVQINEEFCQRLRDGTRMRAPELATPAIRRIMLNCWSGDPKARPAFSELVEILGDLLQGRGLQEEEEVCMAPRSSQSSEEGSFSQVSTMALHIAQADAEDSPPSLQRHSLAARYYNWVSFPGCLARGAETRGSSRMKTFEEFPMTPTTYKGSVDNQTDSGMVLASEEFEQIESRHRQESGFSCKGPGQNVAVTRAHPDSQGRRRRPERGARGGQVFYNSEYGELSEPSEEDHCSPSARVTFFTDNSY
T1 sequence (P10721 26-976 V559D): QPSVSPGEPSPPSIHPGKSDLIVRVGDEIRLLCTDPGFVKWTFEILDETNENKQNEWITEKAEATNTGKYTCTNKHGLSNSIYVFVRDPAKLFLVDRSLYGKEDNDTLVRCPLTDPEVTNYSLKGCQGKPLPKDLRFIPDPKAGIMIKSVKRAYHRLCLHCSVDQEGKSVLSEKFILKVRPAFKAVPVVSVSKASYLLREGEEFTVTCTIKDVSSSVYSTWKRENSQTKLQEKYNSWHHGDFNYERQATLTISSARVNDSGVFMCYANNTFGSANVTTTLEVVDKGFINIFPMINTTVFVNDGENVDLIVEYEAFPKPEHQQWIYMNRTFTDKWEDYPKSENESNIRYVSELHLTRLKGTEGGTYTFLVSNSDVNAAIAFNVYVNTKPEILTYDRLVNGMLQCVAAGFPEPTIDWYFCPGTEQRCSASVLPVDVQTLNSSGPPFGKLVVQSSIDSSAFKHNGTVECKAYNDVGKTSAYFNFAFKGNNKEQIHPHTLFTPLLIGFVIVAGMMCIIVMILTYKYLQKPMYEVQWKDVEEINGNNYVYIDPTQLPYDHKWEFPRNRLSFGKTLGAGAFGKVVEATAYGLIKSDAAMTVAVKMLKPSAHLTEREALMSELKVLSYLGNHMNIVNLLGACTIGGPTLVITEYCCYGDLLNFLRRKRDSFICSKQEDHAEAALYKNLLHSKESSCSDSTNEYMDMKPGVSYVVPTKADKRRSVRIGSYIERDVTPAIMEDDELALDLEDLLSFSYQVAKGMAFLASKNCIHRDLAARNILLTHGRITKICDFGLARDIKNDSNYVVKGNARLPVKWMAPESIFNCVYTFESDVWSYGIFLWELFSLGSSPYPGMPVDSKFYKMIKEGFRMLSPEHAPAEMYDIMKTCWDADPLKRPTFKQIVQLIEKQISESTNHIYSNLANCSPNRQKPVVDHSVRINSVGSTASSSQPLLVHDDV
T5 sequence (P07947 whole entry): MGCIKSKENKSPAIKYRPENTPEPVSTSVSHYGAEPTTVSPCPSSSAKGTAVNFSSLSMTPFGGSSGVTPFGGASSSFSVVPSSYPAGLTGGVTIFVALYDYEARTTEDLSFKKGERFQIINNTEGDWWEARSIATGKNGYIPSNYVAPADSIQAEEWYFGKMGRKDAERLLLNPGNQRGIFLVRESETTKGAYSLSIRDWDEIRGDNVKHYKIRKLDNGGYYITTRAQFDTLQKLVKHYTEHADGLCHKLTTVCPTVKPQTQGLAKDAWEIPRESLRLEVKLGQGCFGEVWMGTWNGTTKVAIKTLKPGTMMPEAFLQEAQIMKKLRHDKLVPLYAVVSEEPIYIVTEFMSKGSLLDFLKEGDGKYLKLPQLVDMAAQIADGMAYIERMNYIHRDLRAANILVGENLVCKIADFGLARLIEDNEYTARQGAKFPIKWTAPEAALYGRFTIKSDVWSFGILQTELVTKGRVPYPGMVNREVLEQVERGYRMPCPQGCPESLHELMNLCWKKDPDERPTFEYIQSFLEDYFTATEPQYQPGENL

For the compound `CCOC(=O)c1cnc(S(C)(=O)=O)nc1N1CCC[C@@H](n2nc(-c3ccc(Oc4ccccc4)cc3)c3c(N)ncnc32)C1` [Compound 8c, Ethyl (R)-4-(3-(4-Amino-3-(4-phenoxyphenyl)-1H-pyrazolo[3,4-d]pyrimidin-1-yl)piperidin-1-yl)-2-(methylsulfonyl)pyrimidine-5-carboxylate], the remaining binding at 1 µM in test [1] (@1000nM, read-out: %Control) came out at 70%; in test [1] (read-out: %Control @1000nM), 70%; in test [2] (@1000nM, read-out: %Control) it was 77%; in test [2] (read-out: %Control @1000nM) it was 77%; in test [3] (@1000nM, read-out: %Control), 100%; in test [3] (read-out: %Control @1000nM), 100%. For the same compound, the remaining binding at 1 µM amounted to 97% in test [4] (@1000nM, read-out: %Control); 97% in test [4] (read-out: %Control @1000nM); 25% in test [5] (@1000nM, read-out: %Control); 25% in test [5] (read-out: %Control @1000nM); 100% in test [6] (@1000nM, read-out: %Control); 100% in test [6] (read-out: %Control @1000nM). In addition, the remaining binding at 1 µM in test [7] (@1000nM, read-out: %Control) was 90%; in test [7] (read-out: %Control @1000nM) it was 90%; in test [8] (@1000nM, read-out: %Control), 69%; in test [8] (read-out: %Control @1000nM) it was 69%. This compound had a difference in % of control versus compound Ib at 1 µM in test [2] (@1000nM) of 1%. The difference in %Control vs compound Ib at 1 µM in test [3] (@1000nM) was found to be 3%. Further, the difference in %Control versus compound Ib at 1 µM was 20% in test [4] (@1000nM) and -25% in test [8] (@1000nM). Moreover, in test [6] (@1000nM), the difference in %Control from compound Ib at 1 µM was 73%. Further, the difference in % of control binding versus compound Ib at 1 µM in test [7] (@1000nM) amounted to 58%.
`Cc1cnc(S(C)(=O)=O)nc1N1CCCC(n2nc(-c3ccc(Oc4ccccc4)cc3)c3c(N)ncnc32)C1` (stereo not drawn) [Compound 8a, 1-(1-(5-Methyl-2-(methylsulfonyl)pyrimidin-4-yl)piperidin-3-yl)-3-(4-phenoxyphenyl)-1H-pyrazolo[3,4-d]pyrimidin-4-amine]: the remaining binding at 1 µM in test [1] (@1000nM, read-out: %Control) came out at 37%; in test [1] (read-out: %Control @1000nM), 37%; in test [2] (@1000nM, read-out: %Control), 81%; in test [2] (read-out: %Control @1000nM) it was 81%; in test [3] (@1000nM, read-out: %Control), 79%; in test [3] (read-out: %Control @1000nM), 79%. The remaining binding at 1 µM in test [4] (@1000nM, read-out: %Control) was determined as 88%; in test [4] (read-out: %Control @1000nM), 88%; in test [5] (@1000nM, read-out: %Control) it was 8.1%; in test [5] (read-out: %Control @1000nM), 8.1%; in test [6] (@1000nM, read-out: %Control), 88%; in test [6] (read-out: %Control @1000nM), 88%. Moreover, the remaining binding at 1 µM in test [7] (@1000nM, read-out: %Control) stood at 76%; in test [7] (read-out: %Control @1000nM) it was 76%; in test [8] (@1000nM, read-out: %Control) it was 80%; in test [8] (read-out: %Control @1000nM), 80%. Besides, the difference in % of control versus compound Ib at 1 µM in test [2] (@1000nM) stood at 5%. In addition, the difference in %Control vs compound Ib at 1 µM in test [3] (@1000nM) is -18%. In addition, the difference in %Control versus compound Ib at 1 µM was 11% in test [4] (@1000nM) and -14% in test [8] (@1000nM). For the same compound, the difference in %Control from compound Ib at 1 µM in test [6] (@1000nM) is 61%. Further, in test [7] (@1000nM), the difference in % of control binding versus compound Ib at 1 µM worked out at 44%.
Turning to `C=CC(=O)N1CCC[C@@H](n2nc(-c3ccc(Oc4ccccc4)cc3)c3c(N)ncnc32)C1` [Compound 1g, Ibrutinib, reference compound], the remaining binding at 1 µM turned out to be 27% in test [1] (@1000nM, read-out: %Control); 27% in test [1] (read-out: %Control @1000nM); 76% in test [2] (@1000nM, read-out: %Control); 76% in test [2] (read-out: %Control @1000nM); 77% in test [4] (@1000nM, read-out: %Control); 77% in test [4] (read-out: %Control @1000nM). Also, the remaining binding at 1 µM in test [6] (@1000nM, read-out: %Control) was 27%; in test [6] (read-out: %Control @1000nM), 27%; in test [7] (@1000nM, read-out: %Control) it was 32%; in test [7] (read-out: %Control @1000nM) it was 32%; in test [8] (@1000nM, read-out: %Control), 94%; in test [8] (read-out: %Control @1000nM), 94%.
For `COC(=O)c1cnc(S(C)(=O)=O)nc1N1CCCC(n2nc(-c3ccc(Oc4ccccc4)cc3)c3c(N)ncnc32)C1` (stereo not drawn) [Compound 8b, Methyl 4-(3-(4-Amino-3-(4-phenoxyphenyl)-1H-pyrazolo[3,4-d]pyrimidin-1-yl)piperidin-1-yl)-2-(methylsulfonyl)pyrimidine-5-carboxylate], the remaining binding at 1 µM in test [1] (@1000nM, read-out: %Control) is 75%; in test [1] (read-out: %Control @1000nM), 75%; in test [2] (@1000nM, read-out: %Control) it was 77%; in test [2] (read-out: %Control @1000nM) it was 77%; in test [3] (@1000nM, read-out: %Control), 90%; in test [3] (read-out: %Control @1000nM) it was 90%. The remaining binding at 1 µM in test [4] (@1000nM, read-out: %Control) was 84%; in test [4] (read-out: %Control @1000nM), 84%; in test [5] (@1000nM, read-out: %Control), 16%; in test [5] (read-out: %Control @1000nM), 16%; in test [6] (@1000nM, read-out: %Control), 89%; in test [6] (read-out: %Control @1000nM), 89%. Besides, the remaining binding at 1 µM came out at 70% in test [7] (@1000nM, read-out: %Control); 70% in test [7] (read-out: %Control @1000nM); 100% in test [8] (@1000nM, read-out: %Control); 100% in test [8] (read-out: %Control @1000nM). Further, the difference in % of control versus compound Ib at 1 µM in test [2] (@1000nM) amounted to 1%. Further, in test [3] (@1000nM), the difference in %Control vs compound Ib at 1 µM is -7%. Further, the difference in %Control versus compound Ib at 1 µM in test [4] (@1000nM) was 7%; in test [8] (@1000nM) it was 6%. Moreover, the difference in %Control from compound Ib at 1 µM in test [6] (@1000nM) was 62%. Also, the difference in % of control binding versus compound Ib at 1 µM in test [7] (@1000nM) was determined as 38%.
